We go through 1 compound from patent US10548883B2, “Benzotriazole-derived α and β-unsaturated amide compound used as TGF-β RI inhibitor” (GENFLEET THERAPEUTICS (SHANGHAI) INC., priority 2016, dated 2020).

Where “and” joins values, the source holds several entries; their conditions need not be identical. Identical values can stand only once.

Assay [1] deals with NIH/3T3 mouse embryonic cells. The assay can be described thus: Test of proliferation inhibition on NIH/3T3 mouse embryonic cells (CellTiter-Glo, with TGF-β1). Type of assay: cell-based. The conditions noted are these: NIH3T3, 0.2 ng/mL TGF-β1, 72 h. The method, then: Promega's Luminescent Cell Viability Assay (CellTiter-Glo® method, i.e. ATP fluorescence activity detection and analysis), the compound is added to the cell culture plate for incubation. A substrate buffer for detecting intracellular ATP content was added on the day of detection. Slightly shake and centrifuge at 1000 rpm for 1 min. Tested after standing for 10 min. The assay plate was analyzed using Envision multifunctional enzyme marker of PerkinElmer, Inc., and the analysis mode was fluorescence detection, and the data was expressed by the reading of chemiluminescence signal at 400-700 nm.
i) When the cell growth coverage is about 70%, the cell layer was washed with 10 mL of Duchenne phosphate buffer (D-PBS) which is calcium- and magnesium-free, then 2 mL of 0.25% trypsin-EDTA digest was added. The cell culture flask was placed in a CO2 carbon dioxide incubator at 37° C. and incubated for 3-5 min, then 8 mL of complete culture medium containing 2% FBS DMEM cells was added, and the cells were puffed evenly into single cell and counted by Vi-cell cytometer, and NIH/3T3 cell suspension was diluted to 0.375×10^5/mL cells.
ii) 50 μL of 2% DMEM-containing medium was added around the 384-well cell culture plate, then 40 μL of cell suspension was added to the remaining wells to 1500 cells per well. The distribution of the cells was observed under a microscope, and the cell plates were placed in a cell culture incubator with 5% CO2 at 37° C.
iii) Dilution of the compound refers to the preparation of the compound.
iv) A mixture of 2% fetal bovine serum containing 1 ng/mL TGF-β1 in DMEM medium was added manually to the compound intermediate plate, 20 μL per well.
v) The compound intermediate plate was shook slightly for 10 sec at 1000 rpm/min and centrifuge for 10 sec.
vi) 10 uL of the mixed liquid from steps 4 and 5 of each well was transferred to the inoculated cell plate to a final volume of 50 μL by using a Bravo liquid workstation, and the final concentration of TGF-β1 was diluted to 0.2 ng/mL, and centrifuged for 10 sec at 1000 rpm/min. The plates were placed in an incubator with 5% carbon dioxide at 37° C., 5% carbon dioxide for 72 h. The final concentration of the compound is: (unit: μM)
vii) The cell plate containing the compound was cultured in a cell incubator with 5% CO2 at 37° C. for 3 days.
viii) After that, 25 μL of ATP fluorescence activity detection solution was added to each well of the cell plate, then shook gently for about 1 min and centrifuged at 500 rpm/min for about 30 sec, and the reading was performed in an Envision instrument after standing at room temperature for 10 min in the dark.
For orientation: ATP-based viability assays read luminescence as a measure of living cells.

Assay [2] relates to CT-26 cells. The assay can be described thus: Tumor cell proliferation inhibition in BALB/c mouse model of subcutaneously transplanted CT-26 cells, alone or combined with BioXcell-mPD-L1. Type of assay: in vivo. The conditions noted are these: for Tumor volume: average ± SEM, small molecules 75 mg/kg PO twice a day, BioXcell-mPD-L1 10 mg/kg IP twice a week. As for the experimental part: The following table lists the animal grouping and dosing regimen of embodiment 1, the positive reference compound LY2157299 and the BioXcell PD-L1 monoclonal antibody (BioXcell-mPD-L1), which are used alone or in combination in vivo.
Mouse colon cancer CT-26 cells were cultured in vitro in a single layer, and culture conditions is RPMI1640 medium (Medium No. 1640, Roswell Parker Memorial Institute) supplemented with 10% fetal bovine serum at 37° C., 5% CO2. Passage was routinely digested with trypsin-EDTA twice a week. When the cell saturation is 80%-90%, the cells are collected, counted, and inoculated.
0.1 mL (1×10^5) CT-26 cells were subcutaneously inoculated into the right back of each BALB/c mouse. The mice were administered in groups according to the body weight of the mice on the second day after cell inoculation.
The experimental indicator is to investigate whether tumor growth is inhibited, delayed or cured. Tumor diameters were measured with Vernier calipers twice a week. The tumor volume is calculated as: V=0.5a×b^2, and a and b represent the long and short diameters of the tumor, respectively.
The antitumor effect of the compound was evaluated by TGI (%) or tumor proliferation rate T/C (%). TGI (%) reflects the tumor growth inhibition rate. Calculation of TGI (%): TGI (%)=[(1-(mean tumor volume at the end of administration of a treatment group—mean tumor volume at the start of administration of the treatment group))/(mean tumor volume at the end of treatment of the solvent control group)—mean tumor volume at the start of treatment of the solvent control group)]×100%.
Tumor proliferation rate T/C (%): The formula is as follows: T/C %=T/C×100% (T: treatment group; C: negative control group).
Tumor weights were measured after the end of the experiment and the percentage of T/Cweight was calculated. Tweight and Cweight represent the tumor weights of the drug-administered group and the vehicle control group, respectively.
Statistical analysis, including mean and standard error (SEM) of tumor volume at each time point for each group (see Table 4 for specific data). […] T-test was used for comparison between the two groups, and one-way analysis of variance was used for comparison between three or more groups. If there was a significant difference in F values, the Gass-Howell method was used to test. If there is no significant difference in F values, the Dunnet (2-sided) method is used for analysis. All data analysis was performed with SPSS 17.0. A significant difference was considered at p<0.05.

The IC50 is the midpoint of a concentration-inhibition curve. High values mean weaker potency in that assay, low ones greater potency in that assay. In the case of `Cc1cccc(-c2nn3c(c2-c2ccc4ncnn4c2/C=C/C(N)=O)CCC3)n1` [Embodiment 1], the IC50 in assay [1] was in the range of 500 to 2000 nM. Besides, the Tumor volume in assay [2] (day 10 of administration) is 102 ± 19 mm^3; in assay [2] (day 13 of administration), 339 ± 89 mm^3; in assay [2] (day 15 of administration), 552 ± 147 mm^3; in assay [2] (day 17 of administration), 874 ± 240 mm^3; in assay [2] (day 20 of administration) it was 1331 mm^3 and 1331 ± 394 mm^3. Further, in assay [2] (twenty days after start of administration, 75 mg/kg PO and/or 10 mg/kg IP), the “Tumor proliferation rate T/C” value is 51%. In addition, in assay [2] (twenty days after start of administration, 75 mg/kg and/or 10 mg/kg), the “Antitumor effect compared with the solvent control group” value is “no significant antitumor effect”.
